Test results taken from ChEMBL document CHEMBL3611982, “Lowering the pKa of a bisimidazoline lead with halogen atoms results in improved activity and selectivity against Trypanosoma brucei in vitro” (Eur J Med Chem, 2015).
Active and inactive are the calls of the source. No cut-off for these calls is given here.

How the values were obtained:
[1] = system: Trypanosoma brucei brucei; test: Trypanocidal activity against wild type bloodstream form of Trypanosoma brucei brucei s427 trypomastigotes after 70 hrs by Alamar Blue assay; type: functional, organism-based; details: s427, 70 h
[2] = system: Trypanosoma brucei brucei; test: Trypanocidal activity against diminazene/pentamidine/melaminophenyl arsenicals-resistant bloodstream form of Trypanosoma brucei brucei B48 trypomastigotes after 70 hrs by Alamar Blue assay; type: functional, organism-based; details: B48, 70 h
[3] = system: Trypanosoma brucei brucei; test: Resistant factor, ratio of EC50 for diminazene/pentamidine/melaminophenyl arsenicals-resistant Trypanosoma brucei brucei B48 to EC50 for wild type bloodstream form of Trypanosoma brucei brucei s427 trypomastigotes; type: functional
[4] = Cytotoxicity against HEK293T cells after 30 hrs by Alamar Blue assay; type: cell-based, HEK-293T; details: human
[5] = Selectivity index, ratio of CC50 for HEK293T cells to EC50 for wild type bloodstream form of Trypanosoma brucei s427 trypomastigotes; type: toxicity, cell-based, HEK-293T; details: human, read-out: Ratio CC50/EC50
[6] = system: Trypanosoma brucei brucei; test: Trypanocidal activity against Trypanosoma brucei brucei s427 at 5 uM measured over 1 hr by propidium iodide staining-based fluorimetric analysis; type: functional, organism-based
[7] = system: Trypanosoma brucei brucei; test: Trypanocidal activity against Trypanosoma brucei brucei s427 at 2.5 uM measured over 2 hrs by propidium iodide staining-based fluorimetric analysis; type: functional, organism-based
[8] = system: Trypanosoma brucei brucei; test: Trypanocidal activity against Trypanosoma brucei brucei s427 at >5 fold EC50 measured within 6 hrs by propidium iodide staining-based fluorimetric analysis; type: functional, organism-based
[9] = system: Trypanosoma brucei brucei; test: Trypanocidal activity against Trypanosoma brucei brucei s427 measured within 6 hrs by propidium iodide staining-based fluorimetric analysis; type: functional, organism-based

SMILES | EC50 [1] [nM] | EC50 [2] [nM] | Ratio EC50 [3] | CC50 at 30 h [4] [nM] | selectivity ratio [5] | Activity [6] | Activity [7] | Activity [8] | Activity [9]
O=C(Nc1ccc(N=C2NCCN2)c(F)c1)c1ccc(N=C2NCCN2)cc1 | 580 | 790 | 1.4 | > 200000 | > 340 | – | – | – | –
O=C(Nc1ccc(N=C2NCCN2)cc1)c1ccc(N=C2NCCN2)cc1F | 470 | 650 | 1.4 | > 200000 | > 420 | Active | Active | – | –
O=C(Nc1ccc(N=C2NCCN2)cc1)c1ccc(N=C2NCCN2)cc1Cl | 1320 | 2440 | 1.8 | > 200000 | > 150 | – | – | – | –
O=C(Nc1ccc(N=C2NCCN2)c(Cl)c1)c1ccc(N=C2NCCN2)cc1 | 220 | 360 | 1.7 | > 200000 | > 900 | Active | – | – | –
O=C(Nc1ccc(NC2=NCCN2)cc1)c1ccc(NC2=NCCN2)cc1 | 830 | 870 | 1.1 | > 200000 | > 240 | – | – | Active | Dose-dependent effect
N=C(N)c1ccc(OCCCCCOc2ccc(C(=N)N)cc2)cc1 [PENTAMIDINE] | 0.11 | 550 | 3349 | – | – | – | – | – | –
O=C(Nc1ccc(N=C2NCCN2)cc1)c1ccc(N=C2NCCN2)c(F)c1 | 530 | 690 | 1.3 | > 200000 | > 370 | – | – | – | –
O=C(Nc1ccc(N=C2NCCN2)cc1Cl)c1ccc(N=C2NCCN2)cc1 | 4220 | 4350 | 1 | > 200000 | > 45 | – | – | – | –
O=C(Nc1ccc(N=C2NCCN2)cc1F)c1ccc(N=C2NCCN2)cc1 | 1580 | 2160 | 1.4 | > 200000 | > 120 | – | – | – | –
O=C(Nc1ccc(N=C2NCCN2)cc1)c1ccc(N=C2NCCN2)c(Cl)c1 | 970 | 830 | 0.9 | > 200000 | > 200 | – | – | – | –
N=C(N)c1ccc(/N=N/Nc2ccc(C(=N)N)cc2)cc1 [DIMINAZENE] | 12 | 780 | 42 | – | – | – | – | – | –
O=C(Nc1ccc(N=C2NCCN2)cn1)c1ccc(N=C2NCCN2)cc1 | 1040 | 3230 | 3.1 | > 200000 | > 190 | – | – | – | –
